The assay relates to lettuce (Lactuca sativa) 'Montello'. The assay can be described thus: Alleviation of thermodormancy: lettuce germination at 35 C. As to conditions: 35 C in the dark, after 10 days, priming 20-24 hours. Type of assay: in vivo. Here is the method: Alleviation of thermodormancy by priming was studied in lettuce (Lactuca sativa) ‘Montello’. SMP of lettuce was performed with Agro-Lig (Table 1). Conventional priming treatments included: −1.5 MPa PEG 8000 (Bradford, 1986, supra) and 1.0% K3PO4 (Cantliffe, et al., 1984, Plant Physiol. 75:290-294). After priming, seeds were rinsed and allowed to dry. Seeds were placed to germinate on moistened blotters in closed containers. The containers were maintained at a constant 35 C in the dark. There were four replications of 50 seeds each and the percent germination was determined after 10 days.

Structures are written as SMILES.

`O=P([O-])([O-])[O-].[K+].[K+].[K+]` [1.0% K3PO4, K3PO4] yielded a Percent germination of 71 a %.

The values are drawn from US6646181B1, “Solid matrix control of seed conditioning using selected cell cycle stages” (Kamterter II, L.L.C., priority 1987, dated 2003).
